Measured values reported in ChEMBL document CHEMBL5576037, “Discovery of the first ataxia telangiectasia and Rad3-related (ATR) degraders for cancer treatment” (Eur J Med Chem, 2024).
Calls of active or inactive are those of the source. No cut-off for these calls is given here.

How the values were obtained:
[1] = target: T1, Protein cereblon/Serine/threonine-protein kinase ATR (Homo sapiens, UniProt Q13535+Q96SW2); test: PROTAC activity at CRBN/ATR in human LoVo cells assessed as induction of ATR degradation at 2.5 uM preincubated with MLN4924 for 4 hrs followed by compound addition and measured after 48 hrs by Western blot analysis; assay type: cell-based
[2] = MRT (0 to t) in BALB/c nude mouse xenografted with human LoVo cells at 25 mg/kg, ip administered as single dose and measured after 12 hrs by LC-MS/MS analysis; assay type: ADME, organism-based; conditions: in vivo
[3] = target: Phosphatidylinositol 4,5-bisphosphate 3-kinase catalytic subunit alpha isoform (Homo sapiens) (UniProt P42336); test: Induction of PI3K-alpha degradation in human LoVo cells at 0.16 to 10 uM incubated for 72 hrs by Western blot analysis; assay type: cell-based; conditions: dose 0.16-10 µM
[4] = Half-life in BALB/c nude mouse xenografted with human LoVo cells at 25 mg/kg, ip administered as single dose and measured after 12 hrs by LC-MS/MS analysis; assay type: ADME, organism-based; conditions: in vivo
[5] = target: T1, Protein cereblon/Serine/threonine-protein kinase ATR; test: In vivo PROTAC activity at CRBN/ATR in BALB/c nude mouse xenografted with human LoVo cells assessed as reduction in CHK1 phosphorylation at Ser345 residue administered intraperitoneally once daily for 15 days by Western blot analysis; assay type: functional, organism-based; conditions: dose 12.5-25 mg/kg, route ip, time 15.0 day
[6] = target: T2, Serine/threonine-protein kinase ATR (Homo sapiens, UniProt Q13535); test: Inhibition of ATR phosphorylation at Thr1989 residue in human LoVo cells incubated for 72 hrs by Western blot analysis; assay type: cell-based; conditions: dose 0.16-10 µM
[7] = target: T1, Protein cereblon/Serine/threonine-protein kinase ATR; test: PROTAC activity at CRBN/ATR in human LoVo cells assessed as increase in ATR-CRBN protein-protein interaction by co-immunoprecipitation analysis; assay type: cell-based
[8] = system: Mus musculus; test: Effect on CHK1 protein expression in BALB/c nude mouse xenografted with human LoVo cells at 12.5 to 25 mg/kg, ip administered once daily for 15 days by Western blot analysis; assay type: functional, organism-based; conditions: dose 12.5-25 mg/kg, time 15.0 day
[9] = system: LoVo; test: Cell cycle arrest in human LoVo cells assessed as accumulation of cells at G2/M phase at 1 uM incubated for 72 hrs by PI staining based flow cytometric analysis (reference value: 22.2 %); assay type: functional
[10] = system: LoVo; test: Antiproliferative activity against ATM deficient human LoVo cells incubated for 72 hrs by CCK8 assay; assay type: functional, cell-based
[11] = target: T1, Protein cereblon/Serine/threonine-protein kinase ATR; test: PROTAC activity at CRBN/ATR in human LoVo cells assessed as induction of ATR degradation at 1 uM incubated for 24 hrs by global proteomic profiling analysis; assay type: cell-based
[12] = target: T1, Protein cereblon/Serine/threonine-protein kinase ATR; test: PROTAC activity at CRBN/ATR in human LoVo cells assessed as induction of ATR degradation by measuring maximal efficacy after 72 hrs by Western blot analysis relative to control; assay type: cell-based
[13] = system: LoVo; test: Synergistic antitumor activity against human LoVo cells xenografted in BALB/c nude mouse assessed as tumor growth inhibition at 12.5 mg/kg, ip administered once daily for 15 days in presence of cisplatin relative to control; assay type: functional; conditions: 360 h, time 15 day, read-out: TGI
[14] = Toxicity in BALB/c nude mouse xenografted with human LoVo cells assessed as effect on heart at 12.5 to 25 mg/kg, ip administered twice daily for 15 days by H and E staining based analysis; assay type: organism-based; conditions: in vivo, 360 h, dose 12.5-25 mg/kg, time 15 day
[15] = system: LoVo; test: Cell cycle arrest in human LoVo cells assessed as accumulation of cells at S phase at 0.5 uM incubated for 72 hrs by PI staining based flow cytometric analysis (reference value: 25.5 %); assay type: functional
[16] = target: T1, Protein cereblon/Serine/threonine-protein kinase ATR; test: PROTAC activity at CRBN/ATR in human LoVo cells assessed as induction of ATR degradation at 2.5 uM preincubated with pomalidomide for 4 hrs followed by compound addition and measured after 48 hrs by Western blot analysis; assay type: cell-based
[17] = system: LoVo; test: Antitumor activity against human LoVo cells xenografted in BALB/c nude mouse assessed as tumor growth inhibition at 12.5 mg/kg, ip administered […] for 15 days relative to control; assay type: functional; conditions: 360 h, time 15 day, read-out: TGI
[18] = system: LoVo; test: Antitumor activity against human LoVo cells xenografted in BALB/c nude mouse assessed as induction of DNA damage by measuring increase in gammaH2AX protein level; assay type: functional, cell-based
[19] = target: T2, Serine/threonine-protein kinase ATR; test: Inhibition of ATR (unknown origin)
[20] = Free drug concentration in tumor of BALB/c nude mouse xenografted with human LoVo cells at 25 mg/kg, ip administered as single dose and measured after 12 hrs by LC-MS/MS analysis; assay type: ADME, organism-based; conditions: in vivo
[21] = Toxicity in BALB/c nude mouse xenografted with human LoVo cells assessed as body weight loss at 12.5 to 25 mg/kg, ip administered twice daily for 15 days; assay type: organism-based; conditions: in vivo, 360 h, dose 12.5-25 mg/kg, time 15 day
[22] = target: T1, Protein cereblon/Serine/threonine-protein kinase ATR; test: In vivo PROTAC activity at CRBN/ATR in BALB/c nude mouse xenografted with human LoVo cells assessed as reduction in ATR protein level administered intraperitoneally once daily for 15 days by Western blot analysis; assay type: functional, organism-based; conditions: dose 12.5-25 mg/kg, route ip, time 15.0 day
[23] = target: DNA-dependent protein kinase catalytic subunit (Homo sapiens) (UniProt P78527); test: Induction of DNA-PK degradation in human LoVo cells at 0.16 to 10 uM incubated for 72 hrs by Western blot analysis; assay type: cell-based; conditions: dose 0.16-10 µM
[24] = Tmax in BALB/c nude mouse xenografted with human LoVo cells at 25 mg/kg, ip administered as single dose and measured after 12 hrs by LC-MS/MS analysis; assay type: ADME, organism-based; conditions: in vivo
[25] = system: LoVo; test: Induction of LBP degradation in human LoVo cells at 1 uM incubated for 24 hrs by global proteomic profiling analysis; assay type: cell-based
[26] = system: HCT-116; test: Antiproliferative activity against human HCT-116 cells expressing wildtype ATM incubated for 72 hrs by CCK8 assay; assay type: functional, cell-based; conditions: HCT-116, 72 h
[27] = system: LoVo; test: Cell cycle arrest in human LoVo cells assessed as accumulation of cells at G2/M phase at 0.5 uM incubated for 72 hrs by PI staining based flow cytometric analysis (reference value: 22.2 %); assay type: functional
[28] = system: LoVo; test: Cell cycle arrest in human LoVo cells assessed as accumulation of cells at G0/G1 phase at 0.5 uM incubated for 72 hrs by PI staining based flow cytometric analysis (reference value: 52.3 %); assay type: functional
[29] = Toxicity in BALB/c nude mouse xenografted with human LoVo cells assessed as effect on liver at 12.5 to 25 mg/kg, ip administered twice daily for 15 days by H and E staining based analysis; assay type: organism-based; conditions: in vivo, 360 h, dose 12.5-25 mg/kg, time 15 day
[30] = target: T1, Protein cereblon/Serine/threonine-protein kinase ATR; test: PROTAC activity at CRBN/ATR in human LoVo cells assessed as induction of ATR degradation at 2.5 uM by Western blot analysis; assay type: cell-based; conditions: time 6-72 hrs, TDE = time-dependent effect
[31] = system: LoVo; test: Cell cycle arrest in human LoVo cells assessed as accumulation of cells at S phase at 1 uM incubated for 72 hrs by PI staining based flow cytometric analysis (reference value: 25.5 %); assay type: functional
[32] = target: T1, Protein cereblon/Serine/threonine-protein kinase ATR; test: PROTAC activity at CRBN/ATR in human LoVo cells assessed as induction of ATR degradation at 2.5 uM incubated for 4 hrs by Western blot analysis; assay type: cell-based
[33] = Toxicity in BALB/c nude mouse xenografted with human LoVo cells assessed as effect on lung at 12.5 to 25 mg/kg, ip administered twice daily for 15 days by H and E staining based analysis; assay type: organism-based; conditions: in vivo, 360 h, dose 12.5-25 mg/kg, time 15 day

C[C@@H]1COCCN1c1cc(C2([S@@](C)(=O)=NC(=O)CCc3cn(CCCCCCCC(=O)Nc4cccc5c4C(=O)N(C4CCC(=O)NC4=O)C5=O)nn3)CC2)nc(-c2ccnc3[nH]ccc23)n1 (stereo partly drawn)
Activity [1]: inactive | MRT last at 12 h [2]: 4.21 h | Activity [3]: inactive | half-life [4]: 4.75 h | Activity [5]: Dose-Dependent Effect | inhibition [6]: Dose-Dependent Effect | Activity [7]: Active | Activity [8]: inactive | Activity [9]: 13.4% | IC50 [10]: 0.47 µM | Activity [11]: Active | Emax [12]: 84.3% | inhibition in vivo at 12.5 mg/kg [13]: 60.6% | Activity [14]: Non-Toxic | Activity [15]: 22.4% | Activity [16]: inactive | inhibition in vivo at 12.5 mg/kg [17]: 39.5% | Activity [18]: Active | inhibition [19]: Active | Drug uptake(free) [20]: ~ 6 uM | Activity [21]: Non-Toxic | Activity [22]: Dose-Dependent Effect | Activity [23]: inactive | Tmax [24]: 2 h | Activity [25]: Active | IC50 [26]: 5.1 µM | Activity [27]: 19.7% | Activity [28]: 57.9% | Activity [29]: Non-Toxic | Activity [30]: Tde | Activity [31]: 19.3% | Activity [32]: Active | Activity [33]: Non-Toxic
